Measured values from PMC3355380, “Back to the Future: Lessons Learned in Modern Target-based and Whole-Cell Lead Optimization of Antimalarials” (Current Topics in Medicinal Chemistry, 2012).
In brackets after ≈: the same amount, converted by molar mass. Like-named read-outs stand apart in the source and are kept apart here.

Experiments:
[1] = system: Plasmodium berghei; assay: P. berghei murine model; assay type: in vivo; settings: for Activity (%): average parasitemia reduction; for Cure Rate (%): cure was no parasites at day 30; for parasitemia reduction: at all dosing regimens
[2] = cytotoxicity on Huh7 cells; settings: human, Huh7 cells
[3] = system: P. falciparum 3D7; assay: P. falciparum 3D7 proliferation assay; assay type: cell-based, Plasmodium falciparum; settings: for EC50: Plasmodium falciparum, 3D7
Text: (§1) We screened both our in-house compound collection (~2.3M compounds) and natural products library (12,000 compounds) using a cell based Plasmodium falciparum proliferation assay. This screen provided data on a large number of chemically diverse anti-malarial compounds. These nearly 5700 hits have been deposited into the public EBI database by GNF/Novartis. A number of these hits originated from kinase-directed libraries and many of which are pan-kinase inhibitors. De-convoluting and eliminating inherent kinase activity with many of these scaffolds while maintaining cellular potency was the first step in the hit-to-lead phase for these particular chemotypes. What follows is a summary of the chemical optimization of some kinase-like and non-kinase scaffolds which came out of the whole-cell screening effort.

[4] = target: recombinant PfCDPK1 (Plasmodium falciparum, UniProt P62344); assay: PfCDPK1 enzyme inhibition; assay type: biochemical
Text: In P. falciparum, calcium-dependent protein kinase 1 (PfCDPK1) is expressed during schizogony in the blood and sporozoite stages and is ultimately required for parasite invasion of host cells, parasite motility, and potentially cytokinesis. We identified a series of purine-based, ATP competitive kinase inhibitors from a target-based screen of approximately 20,000 compounds on recombinant PfCDPK1 [9]. Of the most promising hits, the 2,6,9-trisubstitutes purines made up the largest class of compounds coming out of the screen and were therefore chosen as a lead series for chemical optimization.

[5] = cytotoxicity on HeLa cells; assay type: cell-based; settings: human
[6] = cytotoxicity on CHO cells; assay type: cell-based; settings: Chinese hamster
[7] = cytotoxicity on HEp2 cells; assay type: cell-based; settings: human
[8] = system: P. falciparum W2; assay: P. falciparum W2 proliferation assay; assay type: cell-based; settings: Plasmodium falciparum, mean of two experiments
Text: as §1

[9] = system: fifteen P. falciparum strains; assay: panel of fifteen P. falciparum wild type and drug resistant strains; assay type: cell-based; settings: Plasmodium falciparum, read-out: in vitro EC50s across fifteen P. falciparum strains
[10] = system: 40 mammalian kinases; assay: panel of 40 mammalian kinases; assay type: biochemical
[11] = aqueous solubility; assay type: physicochemical; settings: aqueous medium, pH 6.8, aqueous buffer
[12] = system: 190 kinases; assay: human kinase profile on 190 kinases, biochemical and cellular formats; settings: biochemical and cellular assay formats
[13] = system: Huh7; assay: cytotoxicity on Huh7 cells; settings: mean of two experiments
[14] = system: chloroquine-resistant K1 P. falciparum strain; set-up: method as in PMID 20813948; settings: Fig. 4; cited from earlier work
[15] = system: P. falciparum NF54; set-up: method as in PMID 20813948; settings: Fig. 4; cited from earlier work
[16] = metabolic stability in human liver microsomes; assay type: in vitro ADME; settings: for half-life: human, liver microsomes, read-out: Liver Microsomes t1/2 (min), Human; for Liver Microsomes CLint, Human: intrinsic clearance, high clearance corresponds to low stability
[17] = metabolic stability in mouse liver microsomes; assay type: in vitro ADME; settings: for Liver Microsomes CLint, Mouse: intrinsic clearance, high clearance corresponds to low stability; for half-life: mouse, liver microsomes, read-out: Liver Microsomes t1/2 (min), Mouse
[18] = system: P. falciparum NF54; assay: P. falciparum NF54 in vitro potency; assay type: cell-based; settings: Plasmodium falciparum, spiroindolones, Tables 8 and 9
[19] = target: WT-PfDHFR (wild type PfDHFR); set-up: method as in PMID 20350951; settings: cited from earlier work
[20] = target: QM-PfDHFR (quadruple mutant PfDHFR); set-up: method as in PMID 20350951; settings: cited from earlier work
[21] = 1 x 30 mg/kg, 7% Tween 80/3% ethanol (20: 75% PEG300/25%D5W)
[22] = 1 x 30 mg/kg, untreated mice 6-7 days
[23] = 1 x 100 mg/kg, untreated mice 6-7 days
[24] = 3 x 30 mg/kg, untreated mice 6-7 days
[25] = purines, mean of two experiments, read-out: P. falciparum 3D7 EC50
[26] = mean of two experiments, read-out: PfCDPK1 IC50
[27] = piperidyl benzamides, mean of two experiments, read-out: P. falciparum 3D7 EC50
[28] = imidazolopyrimidines, Fig. 2, read-out: 3D7 EC50
[29] = imidazolopiperazine hits, mean of two experiments, read-out: P. falciparum 3D7 EC50

recombinant PfCDPK1, sequence (P62344 whole entry): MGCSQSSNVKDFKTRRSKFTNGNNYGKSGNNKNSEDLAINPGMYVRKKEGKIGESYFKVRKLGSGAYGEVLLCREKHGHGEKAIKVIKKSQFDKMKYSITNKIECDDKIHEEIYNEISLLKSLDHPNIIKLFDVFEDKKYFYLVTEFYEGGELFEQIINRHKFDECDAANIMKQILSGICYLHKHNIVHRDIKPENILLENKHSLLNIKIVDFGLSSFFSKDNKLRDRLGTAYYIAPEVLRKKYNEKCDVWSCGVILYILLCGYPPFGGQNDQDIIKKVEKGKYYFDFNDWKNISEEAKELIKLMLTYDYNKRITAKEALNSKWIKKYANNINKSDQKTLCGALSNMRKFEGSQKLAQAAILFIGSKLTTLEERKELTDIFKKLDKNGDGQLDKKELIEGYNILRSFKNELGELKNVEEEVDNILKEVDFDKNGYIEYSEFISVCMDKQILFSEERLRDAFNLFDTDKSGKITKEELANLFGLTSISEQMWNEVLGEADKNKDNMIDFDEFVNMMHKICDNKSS

C[C@H]1[C@H](OC(=O)CCC(=O)O)O[C@@H]2O[C@@]3(C)CC[C@H]4[C@H](C)CC[C@@H]1[C@@]24OO3 [AS, artesunate, reference compound]
Activity (%) [1, 21]: 89% | Activity (%) ([1]; 1 x 30 mg/kg, 10% ethanol, 30% PEG400, 6% vitamin E TPGS (30: 0.5% MCM / 0.1% Solutol HS15)): 92.2% | Cure Rate (%) ([1]; 1 x 30 mg/kg): 0% | Survival [1, 22]: 7.2 days | Survival ([1]; 1 x 30 mg/kg, untreated mice 6-7 days, Table 10): 7.3 days | Activity (%) ([1]; 1 x 100 mg/kg): 97% | Survival [1, 23]: 6.7 days | Survival ([1]; 3 x 30 mg/kg, 30 day experiment, Table 10): 11.8 days | Activity (%) ([1]; 3 x 30 mg/kg): 98% | Activity (%) ([1]; 3 x 30 mg/kg, Table 10): 99.0% | Cure Rate (%) ([1]; 3 x 30 mg/kg): 0% | Survival [1, 24]: 7.2 days

N[C@H]1CC[C@H](Nc2nc(Nc3ccc(C(=O)N4CCCCC4)cc3)c3ncn(-c4cccc(F)c4)c3n2)CC1 [Compound 2, purfalcamine]
EC50 [2]: 5500 nM | EC50 [3, 25]: 230 nM | IC50 [4]: 17 nM | improvement in enzyme potency (2 vs. 3) ([4]; compound 2 versus compound 3): greater than 200 fold | EC50 [5]: 7000 nM | EC50 [6]: 12300 nM | EC50 [7]: 7200 nM

N[C@H]1CC[C@H](Nc2nc(Nc3ccc(C(=O)N4CCCCC4)cc3)c3ncn(-c4ccc(OCc5ccccc5)cc4)c3n2)CC1 [Compound 3]
EC50 [3, 25]: 312 nM | IC50 [4, 26]: 4040 nM

N[C@H]1CC[C@H](Nc2nc(Nc3ccc(C(=O)N4CCCCC4)cc3)c3ncn(-c4ccc5c(c4)OCO5)c3n2)CC1 [Compound 4]
EC50 [3, 25]: 400 nM | IC50 [4, 26]: 342 nM

CCOc1ccc(-n2cnc3c(Nc4ccc(C(=O)N5CCCCC5)cc4)nc(N[C@H]4CC[C@H](N)CC4)nc32)cc1 [Compound 5]
EC50 [3, 25]: 535 nM | IC50 [4]: 240 nM

N[C@H]1CC[C@H](Nc2nc(Nc3ccc(C(=O)N4CCCCC4)cc3)c3ncn(-c4cccc(C(=O)O)c4)c3n2)CC1 [Compound 6]
EC50 [3, 25]: > 10000 nM | IC50 [4, 26]: 71 nM

N[C@H]1CC[C@H](Nc2nc(Nc3ccc(C(=O)N4CCCCC4)cc3)c3ncn(-c4ccc(C(=O)O)cc4)c3n2)CC1 [Compound 7]
EC50 [3, 25]: > 10000 nM | IC50 [4, 26]: 28 nM

O=C(Nc1cccc(Cl)c1)c1cc(N2CCC(N3CCCC3)CC2)cc(C(F)(F)F)c1 [Compound 11]
EC50 [3, 27]: 134 ± 56 nM | EC50 ([8]; piperidyl benzamides): 888 ± 112 nM

O=C(Nc1cccc(Cl)c1)c1cc(N2CCC(N3CCCCC3)CC2)cc(C(F)(F)F)c1 [Compound 12]
EC50 [3, 27]: 97 ± 18 nM | EC50 ([8]; piperidyl benzamides): 276 ± 14 nM

O=C(Nc1cccc(C(F)(F)F)c1)c1cc(N2CCC(N3CCCCC3)CC2)cc(C(F)(F)F)c1 [Compound 13]
EC50 [3, 27]: 149 nM | EC50 ([8]; piperidyl benzamides): 299 nM

CC1CCN(C2CCN(c3cc(C(=O)Nc4cccc(Cl)c4)cc(C(F)(F)F)c3)CC2)CC1 [Compound 14]
EC50 [3, 27]: 140 nM | EC50 [9]: 100 to 300 nM | EC50 ([8]; piperidyl benzamides): 323 nM

CC1CCCN(C2CCN(c3cc(C(=O)Nc4cccc(C(F)(F)F)c4)cc(C(F)(F)F)c3)CC2)C1 (stereo not drawn) [Compound 15]
EC50 [3, 27]: 58 nM | EC50 ([8]; piperidyl benzamides): 211 nM

FC(F)(F)Oc1ccc(Nc2cc(Nc3nccn3-c3cccc(C(F)(F)F)c3)ncn2)cc1 [Compound 16]
activity against a panel of 40 mammalian kinases [10]: did not exhibit significant activity | EC50 [3, 28]: 420 nM | solubility [11]: 36 µM (≈ 17.3 µg/mL)

CN1CCN(c2nc(Nc3ccc(OC(F)(F)F)cc3)cc(Nc3nccn3-c3cccc(C(F)(F)F)c3)n2)CC1 [Compound 17]
improvement in potency over the hit compound ([3]; 17 versus 16): greater than 10 fold | EC50 [3, 28]: 34 nM | EC50 [9]: < 140 nM | human kinase profile on 190 kinases [12]: clean human kinase profile

NC(Cc1ccccc1)C(=O)N1CCn2c(nc(-c3ccccc3)c2Nc2ccc3c(c2)OCO3)C1 (stereo not drawn) [Compound 18b]
Cytotoxicity (µM) Huh7 [13]: > 10 µM | EC50 [3, 29]: 235 nM | EC50 ([8]; imidazolopiperazine hits): 271 nM

CC(C)CC(N)C(=O)N1CCn2c(nc(-c3ccccc3)c2Nc2ccc3c(c2)OCO3)C1 (stereo not drawn) [Compound 18c]
Cytotoxicity (µM) Huh7 [13]: > 10 µM | EC50 [3, 29]: 116 nM | EC50 ([8]; imidazolopiperazine hits): 119 nM

CC(C)(N)C(=O)N1CCn2c(nc(-c3ccc(F)cc3)c2Nc2ccc(F)cc2)C1 [Compound 19]
Activity (%) [1, 21]: 99.3% | Survival [1, 22]: 7.7 days | Activity (%) ([1]; 1 x 100 mg/kg): 99.6% | Survival [1, 23]: 13.3 days | Activity (%) ([1]; 3 x 30 mg/kg): 99.9% | Survival [1, 24]: 14.0 days | parasitemia reduction [1]: more than 99%

CC(C)(N)C(=O)N1CCn2c(nc(-c3ccc(F)cc3)c2Nc2ccc(F)c(Cl)c2)C1 [Compound 20]
Activity (%) [1, 21]: 99.4% | Survival [1, 22]: 7.7 days | Activity (%) ([1]; 1 x 100 mg/kg): 99.4% | Survival [1, 23]: 17.0 days | Activity (%) ([1]; 3 x 30 mg/kg): 99.8% | Survival [1, 24]: 17.7 days | parasitemia reduction [1]: more than 99%

C[C@H]1CCc2c([nH]c3ccccc23)[C@@]2(N1)C(=O)Nc1ccc(Br)cc12 [Compound 22]
EC50 [14]: 16 nM | EC50 [15]: 10 nM

C[C@@H]1CCc2c([nH]c3ccccc23)[C@]2(N1)C(=O)Nc1ccc(Br)cc12 [Compound 23]
EC50 [14]: > 3000 nM | EC50 [15]: > 5000 nM

C[C@H]1Cc2c([nH]c3ccc(F)cc23)[C@@]2(N1)C(=O)Nc1ccc(Cl)cc12 [Compound 27]
half-life [16]: 10 min | Liver Microsomes CLint, Human [16]: Med | Liver Microsomes CLint, Mouse [17]: High | half-life [17]: 4.2 min | EC50 [18]: 3.4 nM

C[C@H]1Cc2c([nH]c3cc(F)ccc23)[C@@]2(N1)C(=O)Nc1ccc(Cl)cc12 [Compound 28]
half-life [16]: 53.3 min | Liver Microsomes CLint, Human [16]: Low | Liver Microsomes CLint, Mouse [17]: Low | half-life [17]: 53 min | EC50 [18]: 3.5 nM

C[C@H]1Cc2c([nH]c3cc(F)c(F)cc23)[C@@]2(N1)C(=O)Nc1ccc(Cl)cc12 [Compound 29]
half-life [16]: 56.4 min | Liver Microsomes CLint, Human [16]: Low | Liver Microsomes CLint, Mouse [17]: Low | half-life [17]: 49.1 min | EC50 [18]: 0.2 nM

CC1(C)N=C(N)N=C(N)N1c1ccc(Cl)cc1 [Cycloguanil]
Ki [19]: 1.51 ± 0.1 nM | Ki [20]: 454 ± 38 nM

CCc1nc(N)nc(N)c1-c1ccc(Cl)cc1 [Pyrimethamine]
Ki [19]: 0.59 ± 0.05 nM | Ki [20]: 385 ± 163 nM
